Entries after “also recorded” stand apart in the source; their conditions may differ.
Columns and labels:
PPIA = PPIA production in monocytes with CD200 inhibitor; assay type: cell-based; conditions: peptide binds the CD200 activating receptor
Source text: FIGS. 18A-18E. Experimental Model. CD200 is solubilized from the tumor or endothelial interacting on its receptor (CD200R). This CD200/CD200R interaction induces the upregulation of PPIA through the MYC pathway decreasing TNF alpha and IL2 production needed for an immune response (FIG. 18A).
These antagonist have been reported to reverse the differentiation to as myeloid-derived suppressor cells following interaction with soluble CD200 (FIG. 18C) (Moertel et al., J Immunother Can; 2(1):46) and in vivo (FIG. 23). The mechanism of […] protein inhibition has been determined through the upregulation of an immunosuppressive protein PPIA (FIGS. 18A-18E) which is inhabited with the use of the CD200 inhibitor P1A12.

[1] = system: Human immature dendritic cells; assay: Human immature dendritic cells pulsed with P1 peptide or alanine-substituted versions, cytokine production; assay type: cell-based; conditions: human CD11b-derived immature dendritic cells (GM-CSF, IL4), supernatants
Description: FIGS. 13A-13B. Human CD11b cells were isolated. Purified CD11b cells were differentiated to immature dendritic cells using GM-CSF and IL4. Cells were pulsed with P1, P2, P3 and P4 CD200 inhibitors (see Table 2). Supernatants were analyzed for FIG. 13A) cytokine or FIG. 13B) chemokine production.
FIG. 16. Human CD11b cells were isolated and the purified CD11b cells were differentiated to immature dendritic cells using GM-CSF and IL4. Cells were pulsed with human P1 peptide, or a mutated version thereof comprising an alanine substitution (denoted by P1 and the amino acid substitution and position; e.g., P1A1, P1A2, P1A3, P1A4, P1A5, P1A6, etc.) (see, Table 2). Supernatants were analyzed for cytokine production.

[2] = system: splenocytes + OT-1 T cells; assay: Splenocytes pulsed with OVA + inhibitor, OT-1 T cells added, cytokine production by flow cytometric bead array; assay type: cell-based, mouse; conditions: splenocytes pulsed 24 hours with OVA+inhibitor, 48 hours with OT-1 T cells
Description: FIGS. 11A-11B. Splenocytes were pulsed with OVA+an inhibitor peptide and incubated for 24 h. Following incubation, cells were washed, purified OT1 were added to wells and incubated for an additional 48 hours then analyzed for FIG. 11A) TNFa and IL-6 production; and FIG. 11B) IL-2 and IL-17 production. Error bars indicate +/−SEM (n=4/group; *P<0.05; ** P<0.01).
We hypothesize that the two different human CD200 inhibitor peptides (peptide 1=hP1 & peptide 2=hP2, table 2) are hitting different activation receptors on dendritic cells, although only one has been identified. […] We want to generate the immune response most beneficial for our patients. These conclusions were supported by experiments where splenocytes were pulsed with OVA+selected CD200 inhibitors (6061, 6069, 4004, 4006, 4013) for 24 hours. The splenocytes were then washed and cultured for 48 hours with the addition of OT-1 T cells. The cultures were then assessed for cytokine production using a flow cytometric bead array.

tumor bearing mice [3] = assay: Prime-boost OVA vaccination of tumor bearing mice, SIINFEKL specific CD8+ T cell expansion by flow cytometry; assay type: in vivo, mouse; conditions: tumor bearing mice vaccinated with OVA+Poly:ICLC +/- inhibitor, whole blood
Description: FIGS. 3A-3B. FIG. 3A) Vaccination scheme. FIG. 3B) Tumor bearing or non-tumor bearing mice were vaccinated on day 2 and 8 with an agonist (4012) or CD200 inhibitor (6059) only, and on days 3-6 and […] with OVA+Poly:ICLC +/− the agonist (4012) or CD200 inhibitor (6059). B) Mice were bled on day 10, whole blood was stained with an anti-CD8 and SIINFEKL specific detramer (SEQ ID NO: 18), lysed and analyzed by flow cytometry.
(§1) FIGS. 12A-12C. CD200 inhibitor reverses the suppressive effects of the tumor environment. Tumor and non-tumor bearing mice were vaccinated with OVA+Poly:ICLC +/− the CD200 inhibitor 6059 and analyzed for FIG. 12A) SIINFEKL/Kb^+CD8^+ T cell expansion (“SIINFEKL” disclosed as SEQ ID NO: 18). FIG. 12B) Lymphocytes were harvested and stimulated with SIINFEKL peptide (SEQ ID NO: 18). Supernatants were analyzed for TNFα and IFNγ secretion. FIG. 12C) The CD200 inhibitor 6059 was added to OVA+exosomes. Error bars indicate +/−SEM (n=4/group; *P<0.05; by t-test).
(§2) These experiments support the hypothesis that exosomes express the CD200 protein thereby inhibiting the ability to prime a T cell response in the draining lymph nodes of glioma bearing mice. Other CD200 inhibitors were similarly evaluated (FIGS. 3A-3B, 9A-9B and 24A-24B).

tumor bearing mice [4] = assay: Recall response: lymphocytes of vaccinated tumor bearing mice restimulated with OVA/SIINFEKL, cytokine release; assay type: in vivo, mouse; conditions: lymphocytes from cervical lymph nodes of vaccinated tumor bearing mice restimulated, supernatant after 48 hrs
Source text: FIGS. 4A-4B. Tumor bearing or non-tumor bearing mice were vaccinated on day 2 and 8 with an agonist or CD200 inhibitor only, and on days 3-6 and 10 with OVA+Poly:ICLC +/− the CD200 inhibitor 6059. On day 10, were harvested and stimulated with OVA protein to measure a recall response via cytokine release. FIG. 4A) TNF alpha (PG/ML) levels from tumor bearing mice. FIG. 4B) IFN gamma (PG/ML) levels in tumor bearing mice.
as §1, §2

glioma-derived exosomes = assay: Vaccination of non-tumor bearing mice with OVA + glioma-derived exosomes +/- inhibitor; assay type: in vivo, mouse; conditions: OVA+glioma-derived exosomes+antagonist
Description: as §1, §2

GL261 tumor bearing mice [5] = assay: GL261 glioma model, inhibitor inoculated into the tumor site in the brain, then tumor lysate + inhibitor; assay type: in vivo, mouse; conditions: 10 μg inhibitor in the brain at tumor coordinates on day 2, then weekly tumor lysate + inhibitor
Description: Tumor-bearing mice were inoculated in the brain with 10 μg of the inhibitor 6059 at the same coordinates at which the tumor was injected two days previously. This was followed by weekly injections of tumor lysate+inhibitor (FIGS. 5A-5B).

GL261 tumor bearing mice [6] = assay: GL261 glioma model, vaccination with tumor lysate +/- CD200 inhibitor, tumor growth and survival
Description: FIG. 5B) Mice were imaged weekly for tumor growth. The following groups were studied: saline (1), tumor lysate (2), and tumor lysate+CD200 inhibitor (6059) (3). FIG. 5C) Percent survival post inoculation for saline (1), tumor lysate (2), and tumor lysate+CD200 inhibitor (3) groups.
In vivo survival study. […] All vaccinations were administered in the back of the neck in tumor bearing mice.

## VTWQKKKAVSPAN [Inhibitor P1A12, P1 in b288]
PPIA
  Production of PPIA: inhibits the production of PPIA

## SQKVSATACLTLY [hP1A6]
[1]
  Cytokine production (response) vs human P1 peptide: enhanced TNF-α and IL-β production
[1]; listed as P1A6
  Cytokine production (response) vs human P1 peptide: significantly enhanced response

## TASLRCSLKTSQE [Inhibitor 4004]
[2]
  Cytokine profile (TNFa, IL-6, IL-2, IL-17): different cytokine profiles

## NTIGDGGCY [Inhibitor 6059]
Tumor bearing mice [3]
  SIINFEKL specific CD8+ T cell expansion: effect on tumor induced suppression: reversed tumor induced suppression; also recorded: reversed the suppressive effects of the tumor microenvironment; also recorded: reversed the suppressive effects in tumor-bearing mice
Tumor bearing mice [4]
  Recall response via cytokine release (TNF alpha, IFN gamma): effect on tumor induced suppression: modulate/reverse glioma-induced suppression; also recorded: reversed the suppressive effects of the tumor microenvironment
glioma-derived exosomes
  Suppression induced by exosomes: partially reversed the suppression induced by exosomes
GL261 tumor bearing mice [5]
  Tumor growth after inhibitor into the tumor site in the CNS: Tumor growth was delayed
GL261 tumor bearing mice [6]; GL261 mice vaccinated weekly with tumor lysates + inhibitor vs saline or tumor lysates
  Survival benefit: increased survival benefit
GL261 tumor bearing mice [6]; GL261 mice, tumor lysate (65 μg) + inhibitor (50 μg), imaged weekly, vs saline or tumor lysate
  Tumor growth: slowed tumor growth
GL261 tumor bearing mice [6]; GL261 mice, tumor lysate (65 μg) + inhibitor (50 μg), vs saline or tumor lysate
  Enhancement of survival: 30%

## SQKVSGTACLTLY [Inhibitor 4006, P3 in b288]
[2]
  Cytokine profile (TNFa, IL-6, IL-2, IL-17): different cytokine profiles

From patent publication US11666645B2, “CD200 inhibitors and methods of use thereof” (REGENTS OF THE UNIVERSITY OF MINNESOTA, priority 2015, dated 2023)
